Reference: patent US20240300902A1, “NOVEL TRANSGLUTAMINASE 2 INHIBITOR AND USE THEREOF” (MD BIOLAB CO., LTD., priority 2021, published 2024)

How the values were obtained:
ACHN cells = experiment: Preclinical xenograft tumor model (ACHN, BALB/c nude mice); type: in vivo; conditions: 1 mg/kg or 10 mg/kg PO once daily, 5 days per week
Method: Six-week-old male-specific, pathogen-free BALB/c nude mice (n=20) were purchased from the central lab (Animal Inc., Seoul, Korea). Each mouse was injected subcutaneously with ACHN cells (5.0×10^6 cells/each). When tumors reached an appropriate size (100 to 150 mm^3 for ACHN), mice were randomly selected and classified into 4 groups (n=4 to 5) according to the volume and weight of the tumor: The control group was untreated; the streptonigrin-treated group was administered in an amount of 0.2 mg/kg; and the LDD3959-treated group was administered in an amount of 1 mg/kg or 10 mg/kg. The streptonigrin and LDD3959 were orally administered to each treatment group, once daily for 5 days per week. For tumor identification, the mice were euthanized with 7.5% CO2 and the tumors were recovered for immunohistochemical analysis. The tumor volume was calculated according to the following equation: V=(A×B×B)/2 where V is the volume (mm^3), A is the long diameter (mm), and B is the short diameter (mm). The experiment was reviewed and approved by the Institutional Animal Care and Use Committee (IACUC) of the National Cancer Center Research Institute (NCCRI). […]

ACHN renal cancer cells = experiment: Antitumor effect in in vivo renal cancerous tumors, ACHN xenograft, oral administration; parameters: species or system mice; conditions: oral administration daily
Method: (§1) To examine the antitumor effect of LDD3959, CanN.Cg-Foxn1nu/CrljOri mice were used as experimental animals. The mice were xenografted with ACHN renal cancer cells or CAKI-1 renal cancer cells to induce tumors. The ACHN renal cancer cell-transplanted group was orally administered with LDD3959, and the CAKI-1-transplanted group was intraperitoneally administered with LDD3959. In this test, the oral administration was performed daily and the intraperitoneal administration was performed twice a week.

p53 = experiment: P53 rescue test using western blotting; type: cell-based; conditions: low to high concentration, cancer cell lines
Method: Whole cell lysates were prepared using a radioimmunoprecipitation assay (RIPA) buffer (150 mM sodium chloride, 1.0% (w/v) IGEPAL® CA-630 (NP-40), 0.5% (w/v) sodium deoxycholate, 0.1% (w/v) sodium dodecyl sulfate (SDS), a protease inhibitor cocktail, and 50 mM Tris-HCl (pH 8.0) containing a phosphatase inhibitor cocktail. Protein assays were performed through Bradford protein assay (Thermo Scientific, Waltham, MA, USA) to normalize protein expression. The proteins were resolved by SDS-PAGE and transferred to polyvinylidene difluoride (PVDF) membranes (Merck Millipore, Burlington, MA, USA). The membranes were blocked with 5% (w/v) BSA for 1 hour at room temperature and incubated overnight at 4° C. with labeled antibodies. Membranes were washed in TBS-T for 1 hour at room temperature and incubated together with a horseradish peroxidase (HRP)-bound secondary antibody for 1 hour at room temperature. Finally, the membranes were washed in TBS-T for 1 hour at room temperature and developed with enhanced chemiluminescence.

[1] = tested on: CAKI-1 renal cancer cells; experiment: Antitumor effect in in vivo renal cancerous tumors, CAKI-1 xenograft, intraperitoneal administration; parameters: species or system mice
Method: as §1

[2] = tested on: MDA-MB231 breast cancer cells; experiment: Cell viability in breast cancer cell lines according to treatment time; type: cell-based; conditions: MDA-MB231, 24, 48 and 72 hours
Method: Breast cancer cells (50,000 cells/well, 100 μl) were cultured in 96-well microplates, and after 24 hours, LDD3959 was added to each well in various concentrations, using a serum-free cell culture medium. In each well, a reaction was performed at 37° C. in the presence of 5% CO2 for 2 hours.
Next, the existing culture medium was replaced with a culture medium containing 10% FSB, and 24, 48, and 72 hours of reactions were performed. After the completion of each reaction, the exiting culture medium was removed, a culture medium containing a water soluble tetrazolium (WST) salt was added, the plate was allowed to react at 37° C. in the presence of 5% CO2 for a duration in the range of 1 hour to 3 hours, and the absorbance was measured at 450 nm.

MDA-MB231 cells = experiment: Cell viability in breast cancer cell lines according to concentration; type: cell-based
Method: First breast cancer cells (MDA-MB-453, HCC-1806, HCC-1937: 10,000 cells/well, 100 μl) and second breast cancer cells (MDA-MB-231, MCF-7: 10,000 cells/well, 100 μl) were cultured in 96-well microplates.
After 24 hours, LDD3959 […] of various concentrations were added to each well, using a serum-free cell culture medium, and a reaction was allowed to proceed for 2 hours at 37° C. in the presence of 5% CO2. The culture medium was replaced with a culture medium containing 10% FSB, and a reaction was performed for 72 hours.
The existing culture medium was removed, and a new culture medium containing a water soluble tetrazolium salt was added. After that, the plate underwent a reaction at 37° C. in the presence of 5% CO2 for a duration in the range of 1 hour to 3 hours, and then absorbance was measured at 450 nm.

[3] = tested on: ACHN cancer cell population; experiment: Sulforhodamine B (SRB) assay; type: cell-based, Human
Method: Cells (10,000 cells/well, 100 μL) were incubated in a 96-well microtiter plate. After 24 hours of the incubation, drug (100 μL) was added to each of the wells, and the culture was further incubated at 37° C. for 48 hours. The cells were then fixed in TCA (50 μL per well). The plates were incubated at 4° C. for a minimum of 1 hour or a maximum of 3 hours. The liquid was removed from the plates, and then the plate was washed five times with water and then dried at room temperature (RT) for about 12-24 hours. The fixed cells were stained with 100 μL SRB for 5 minutes at room temperature. After the staining, the plate was washed three times with 1% (w/v) glacial acetic acid and dried at room temperature for about 12-24 hours. Next, the SRB was then dissolved in 10 mM Trizma base, and the absorbance was measured at 515 nm. The effect of the drug was expressed as GI50 (50% growth inhibition).
Specifically, each of the LDD3732, LDD3922, and LDD3959 in concentrations of 10^−9, 10^−8, 10^−7, 10^−6, and 10^−5 M were tested, and the percentage decrease in the control value of SRB was measured using an ACHN cancer cell population.

O=C1C(Cl)=C(Cl)C(=O)c2[nH]c(-c3ccc(Br)c(F)c3)nc21 [LDD3959, 2-(4-bromo-3-fluorophenyl)-5,6-dichloro-1H-benzo[d]imidazole-4,7-dione]
tumor volume increase rate (ACHN cells): tumor volume increase rate decreased as the LDD3959 dose increased | tumor growth inhibitory effect (ACHN renal cancer cells): concentration-dependent tumor growth inhibitory effects | p53 rescue effect (Western blot band of p53) (p53): dose-dependent p53 rescue effects | tumor growth inhibitory effect ([1]; CAKI-1 xenograft, intraperitoneal administration twice a week): concentration-dependent tumor growth inhibitory effects | hematological examination ([1]; intraperitoneal administration group): no abnormal findings | apoptosis level according to time [2]: exhibited a low apoptosis level at the initial stage, but the apoptosis level increased | effective concentration for apoptosis (MDA-MB231 cells; MDA-MB231, highest expression level of transglutaminase 2, 72 hours): the effective concentration was lowest, and the efficacy was best | acting concentration compared with conventional transglutaminase 2 inhibitors (MDA-MB231 cells; breast cancer cell lines): lower concentrations than conventional transglutaminase 2 inhibitors | GI50 ([3]; Homo sapiens, 48 hours, read-out: GI50 (50% growth inhibition)): 2500 nM | SRB measurement (percentage decrease in the control value of SRB) ([3]; concentration of 10^−5 M, 48 hours): −11.87 | decrease in cell counts ([3]; concentrations 10^−6 M or lower): no significant decrease in cell counts
